Experimental data taken from US8394809B2, “Phenoxy-substituted pyrimidines as opioid receptor modulators” (priority 2009, dated 2013).
Like-named read-outs stand apart in the source and are kept apart here.

Tests used:
delta opioid receptor [1] = molecular target: T1, delta opioid receptor (Rattus norvegicus, UniProt P33533); assay: Rat brain delta opioid receptor binding assay; conditions: rat forebrain membranes
T1 construct: the forebrains were homogenized in Tris buffer in a Teflon®-glass homogenizer; from tissue; host or cells: forebrain of male Wistar rats, particulate membrane preparation
T1 sequence (P33533 whole entry): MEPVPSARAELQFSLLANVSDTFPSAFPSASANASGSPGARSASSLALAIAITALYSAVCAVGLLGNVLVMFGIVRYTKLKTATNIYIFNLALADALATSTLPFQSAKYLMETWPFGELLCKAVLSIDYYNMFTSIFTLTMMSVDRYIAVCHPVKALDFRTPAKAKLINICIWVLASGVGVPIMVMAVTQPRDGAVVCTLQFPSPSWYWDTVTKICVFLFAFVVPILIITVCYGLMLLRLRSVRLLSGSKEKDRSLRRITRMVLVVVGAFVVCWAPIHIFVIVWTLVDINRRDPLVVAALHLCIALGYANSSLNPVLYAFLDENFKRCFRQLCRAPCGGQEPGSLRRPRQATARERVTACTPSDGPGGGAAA
Experimental: (§1) Procedure: Male, Wistar rats (150-250 g, VAF, Charles River, Kingston, N.Y.) were killed by CO2, and their brains were removed and placed immediately in ice cold Tris HCl buffer (50 mM, pH 7.4). The forebrains were separated from the remainder of the brain by a coronal transection, beginning dorsally at the colliculi and passing ventrally through the midbrain-pontine junction. After dissection, the forebrains were homogenized in Tris buffer in a Teflon®-glass homogenizer. The homogenate was diluted to a concentration of 1 g of forebrain tissue per 80 mL Tris and centrifuged at 39,000×g for 10 min. The pellet was resuspended in the same volume of Tris buffer containing 5 mM MgCl2 with several brief pulses from a Polytron homogenizer. This particulate preparation was used for the delta opioid binding assays. Following incubation with the delta selective peptide ligand ˜4 nM [^3H]DPDPE or 0.25 nM [^3H]naltrindole at 25° C. for 2.5 h in a 96-well plate with total volume of […], the plate contents were filtered through Wallac filtermat B sheets on a Tomtec 96-well harvester. […] To each sample area 2×50 μL of Betaplate Scint scintillation fluid (LKB) was added and the radioactivity was quantified on a LKB (Wallac) 1205 BetaPlate liquid scintillation counter.
(§2) Analysis: The data from the scintillation counter was used to calculate either the % inhibition compared to control binding (when only a single concentration of test compound was evaluated) or a Ki value (when a range of concentrations was tested). Percent inhibition was calculated as: [(total dpm−test compound dpm)/(total dpm-nonspecific dpm)]*100. Kd and Ki values were calculated using GraphPad PRISM data analysis program.

mu opioid receptor = molecular target: T2, mu opioid receptor (Rattus norvegicus, UniProt P33535); assay: Rat brain mu opioid receptor binding assay; conditions: rat forebrain membranes, ~0.8 nM [3H]DAMGO; read-out: μ-binding Ki
T2 construct: the forebrains were homogenized in Tris buffer in a Teflon®-glass homogenizer; from tissue; host or cells: forebrain of male Wistar rats, particulate membrane preparation
T2 sequence (P33535 whole entry): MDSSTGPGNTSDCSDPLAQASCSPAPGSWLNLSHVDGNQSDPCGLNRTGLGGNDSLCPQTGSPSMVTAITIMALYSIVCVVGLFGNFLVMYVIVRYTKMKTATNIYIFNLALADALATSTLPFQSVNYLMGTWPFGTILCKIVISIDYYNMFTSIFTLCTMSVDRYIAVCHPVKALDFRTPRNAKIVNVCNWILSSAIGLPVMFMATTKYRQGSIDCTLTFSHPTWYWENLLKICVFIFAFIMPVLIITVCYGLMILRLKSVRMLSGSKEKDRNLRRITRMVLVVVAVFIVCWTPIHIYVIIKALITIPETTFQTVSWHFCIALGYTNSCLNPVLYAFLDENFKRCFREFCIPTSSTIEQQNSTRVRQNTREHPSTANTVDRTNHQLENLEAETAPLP
Experimental: as §1, with “mu” for “delta”, “ligand, ˜0.8” for “ligand ˜4”, “[^3H]DAMGO,” for “[^3H]DPDPE or 0.25 nM [^3H]naltrindole”, “total assay” for “total”, “2×40” for “2×50”, “quantifed” for “quantified”
as §2

delta opioid receptor [2] = molecular target: T3, delta opioid receptor (Mus musculus, UniProt P32300); assay: [35S]GTPγS binding assay in NG108-15 cell membranes (delta opioid functional assay); type: biochemical; conditions: for GTPγS δ-Rel Efficacy @200 nM: 200 nM compound, relative to calculated max of SNC80 dose response
T3 construct: NG108-15 cell membranes were purchased from Applied Cell Sciences (Rockville, Md.); host or cells: NG108-15 cell membranes (purchased)
T3 sequence (P32300 whole entry): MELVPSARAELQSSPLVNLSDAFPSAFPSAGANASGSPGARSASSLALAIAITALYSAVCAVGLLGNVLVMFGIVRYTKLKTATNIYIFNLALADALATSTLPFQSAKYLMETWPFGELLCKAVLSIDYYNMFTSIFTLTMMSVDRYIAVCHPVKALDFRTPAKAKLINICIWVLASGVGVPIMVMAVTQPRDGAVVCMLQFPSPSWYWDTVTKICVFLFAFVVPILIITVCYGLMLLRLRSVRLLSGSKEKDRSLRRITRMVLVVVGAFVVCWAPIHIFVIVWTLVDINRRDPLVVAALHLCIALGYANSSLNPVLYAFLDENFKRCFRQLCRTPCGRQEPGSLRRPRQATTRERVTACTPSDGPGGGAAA
Experimental: Methods: NG108-15 cell membranes were purchased from Applied Cell Sciences (Rockville, Md.). 5 mg/mL of membrane protein was suspended in 10 mM TRIS-HCl pH 7.2, 2 mM EDTA, 10% sucrose. Membranes were maintained at 4-8° C. A 1 mL volume of membranes was added into 10 mL cold binding assay buffer. The assay buffer contained 50 mM Tris, pH 7.6, 5 mM MgCl2, 100 mM NaCl, 1 mM DTT and 1 mM EGTA. The membrane suspension was homogenized twice with a Polytron, and centrifuged at 3000 rpm for 10 min. The supernatant was then centrifuged at 18,000 rpm for 20 min. Ten mL assay buffer was added into the pellet containing tube. The pellet and buffer were mixed with a Polytron.
Incubation procedure: The pellet membranes (75 μg/mL) were preincubated with SPA (10 mg/mL) at 25° C. for 45 min in the assay buffer. […] 200 nM of receptor agonists was used to stimulate [^35S]-GTPγS binding. The basal binding was tested in the absence of agonists and non-specific binding was tested in the presence of 10 μM unlabeled GTPγS.
Data % of Basal=(stimulated−non specific)*100/(basal−non specific). Relative Efficacy of a compound at 200 nM=(% of Basal of test compound at 200 nM)/(Calculated Max of SNC80 dose response. Curve in prism).

delta opioid receptor [3] = molecular target: T3, delta opioid receptor; assay: as above; type: biochemical; conditions: 10 μM
[4] = 0.25 nM [3H]naltrindole, read-out: δ-binding (Naltrindole ligand) Ki
[5] = ~4 nM [3H]DPDPE, read-out: δ-binding (DPDPE ligand) Ki

Row | SMILES | Ki (delta opioid receptor [1]; [4]) | Ki (mu opioid receptor) | Ki (delta opioid receptor [1]; [5]) | other results
1 | COc1ccc(Oc2ncc(NCc3ccncc3)c(Oc3ccc(OC)cc3)n2)cc1 [Cpd 39] | 3530 nM | > 10 µM |  | 
2 | COc1ccc(Oc2ncc(NC3CCC(N)CC3)c(Oc3ccc(OC)cc3)n2)cc1 (stereo not shown) [Cpd 16] | 455 nM | 3.86 µM |  | 
3 | COc1ccc(Oc2ncc(NCC3CCCCN3)c(Oc3ccc(OC)cc3)n2)cc1 (racemic) [Cpd 25] |  | 2.51 µM | 489 nM | 
4 | COc1ccc(Oc2nc(Oc3cccc(C#N)c3)ncc2NC[C@@H]2CCCN2)cc1 [Cpd 53] |  |  |  | GTPγS δ-opioid receptor Rel Efficacy (delta opioid receptor [2]): 1.033; GTPγS δ-Rel Efficacy @200 nM (delta opioid receptor [2]): 0.705; EC50 (delta opioid receptor [2]; read-out: GTPγS δ-opioid receptor EC50): 53 nM
5 | COc1ccc(Oc2ncc(NC(C)c3ccncc3)c(Oc3ccc(OC)cc3)n2)cc1 (racemic) [Cpd 40] | 4370 nM | > 10 µM |  | 
6 | COc1ccc(Oc2ncc(NCc3nccs3)c(Oc3ccc(OC)cc3)n2)cc1 [Cpd 43] |  | > 10 µM | 4220 nM | 
7 | COc1ccc(Oc2ncc(NCCC3CCCNC3)c(Oc3ccc(OC)cc3)n2)cc1 (racemic) [Cpd 34] |  | > 10 µM | 1120 nM | 
8 | COc1ccc(Oc2ncc(NCc3ccc(-n4ccnc4)cc3)c(Oc3ccc(OC)cc3)n2)cc1 [Cpd 37, [2,4-Bis-(4-methoxy-phenoxy)-pyrimidin-5-yl]-(4-imidazol-1-yl-benzyl)-amine] | 2700 nM | > 10 µM |  | 
9 | COc1ccc(Oc2nc(Nc3cccnc3)ncc2NC[C@@H]2CCCN2)cc1 [Cpd 48] |  |  |  | GTPγS δ-Rel Efficacy @200 nM (delta opioid receptor [2]): 0.267
10 | COc1ccc(Oc2ncc(NC3CCN(C(C)=O)CC3)c(Oc3ccc(OC)cc3)n2)cc1 [Cpd 41] | 5320 nM | > 10 µM |  | 
11 | COc1ccc(Oc2ncc(CNC[C@@H]3CCCN3C)c(Oc3ccc(OC)cc3)n2)cc1 [Cpd 8] | 92.5 nM | 7.16 µM |  | 
12 | COc1ccc(Oc2ncc(NCC3CNCCO3)c(Oc3ccc(OC)cc3)n2)cc1 (racemic) [Cpd 31] |  | > 10 µM | 723 nM | 
13 | COc1ccc(Oc2nc([S+]([O-])c3ccc(OC)cc3)ncc2NC[C@@H]2CCCN2)cc1 (stereo partly drawn) [Cpd 20, [2-(4-Methoxybenzenesulfinyl)-4-(4-methoxyphenoxy)-pyrimidin-5-yl]-pyrrolidin-2-(S)-ylmethylamine] |  | > 10 µM | 274 nM | 
14 | CCN(CC)CCC(C)Nc1cnc(Oc2ccc(OC)cc2)nc1Oc1ccc(OC)cc1 (racemic) [Cpd 38] | 3090 nM | > 10 µM |  | 
15 | COc1ccc(Oc2nc(Nc3nccs3)ncc2NC[C@@H]2CCCN2)cc1 [Cpd 50] |  |  |  | GTPγS δ-Rel Efficacy @200 nM (delta opioid receptor [2]): 0.143
16 | COc1ccc(Nc2ncc(NC[C@@H]3CCCN3)c(Oc3ccc(OC)cc3)n2)cc1 [Cpd 23, 4-(4-Methoxyphenoxy)-N^2-(4-methoxyphenyl)-N^6-pyrrolidin-2-(S)-ylmethyl-pyrimidine-2,5-diamine] |  | > 10 µM | 363 nM | 
17 | COc1ccc(Oc2ncc(NC[C@@H](N)CO)c(Oc3ccc(OC)cc3)n2)cc1 [Cpd 10] | 130 nM | > 10 µM |  | 
18 | COc1ccc(Oc2ncc(NC3CCN(Cc4ccccc4)C3)c(Oc3ccc(OC)cc3)n2)cc1 (racemic) [Cpd 27, (1-Benzyl-pyrrolidin-3-yl)-[2,4-bis-(4-methoxy-phenoxy)-pyrimidin-5-yl]-amine] | 1020 nM | 3.57 µM |  | 
19 | COc1ccc(Oc2ncc(NC[C@H](N)CO)c(Oc3ccc(OC)cc3)n2)cc1 [Cpd 21, 2-(S)-Amino-3-[2,4-bis-(4-methoxy-phenoxy)-pyrimidin-5-ylamino]propan-1-ol] |  | > 10 µM | 348 nM | 

Row | SMILES | Ki (delta opioid receptor [1]; [4]) | Ki (mu opioid receptor) | Ki (delta opioid receptor [1]; [5]) | other results
20 | COc1ccc(Oc2nc(Oc3cccc(OC)c3)ncc2NC[C@@H]2CCCN2)cc1 [Cpd 52] |  |  |  | GTPγS δ-opioid receptor Rel Efficacy (delta opioid receptor [2]): 0.935; GTPγS δ-Rel Efficacy @200 nM (delta opioid receptor [2]): 0.624; EC50 (delta opioid receptor [2]; GTPγS δ-opioid receptor EC50): 51 nM
21 | COc1ccc(Oc2ncc(NCc3ncc[nH]3)c(Oc3ccc(OC)cc3)n2)cc1 [Cpd 42] |  | > 10 µM | 3810 nM | 
22 | COc1ccc(Oc2nc(Nc3cccc(F)c3)ncc2NC[C@@H]2CCCN2)cc1 [Cpd 49, N^2-(3-Fluoro-phenyl)-4-(4-methoxy-phenoxy)-N^5-pyrrolidin-2-(S)-ylmethyl-pyrimidine-2,5-diamine] |  |  |  | GTPγS δ-Rel Efficacy @200 nM (delta opioid receptor [2]): 0.216
23 | COc1ccc(Oc2nc(Oc3cccc(Cl)c3)ncc2NC[C@@H]2CCCN2)cc1 [Cpd 51] |  |  |  | GTPγS δ-opioid receptor Rel Efficacy (delta opioid receptor [2]): 1.040; GTPγS δ-Rel Efficacy @200 nM (delta opioid receptor [2]): 0.859; EC50 (delta opioid receptor [2]; GTPγS δ-opioid receptor EC50): 43 nM
24 | COc1ccc(Oc2ncc(NC[C@@H]3CCCN3C)c(Oc3ccc(OC)cc3)n2)cc1 [Cpd 9, [2,4-Bis-(4-methoxy-phenoxy)-pyrimidin-5-yl]-(1-methyl-pyrrolidin-2-(S)-ylmethyl)-amine] | 115 nM | 9.29 µM |  | 
25 | COc1ccc(Oc2ncc(NC3CC4CCC(C3)N4)c(Oc3ccc(OC)cc3)n2)cc1 (stereo not shown) [Cpd 11] | 155 nM | 2.15 µM |  | 
26 | COc1ccc(Oc2ncc(NC3CCNCC3)c(Oc3ccc(OC)cc3)n2)cc1 [Cpd 12] | 174 nM | 15.2 µM |  | 
27 | COc1ccc(Oc2ncc(NCC3CCCNC3)c(Oc3ccc(OC)cc3)n2)cc1 (racemic) [Cpd 15] | 297 nM | 3.23 µM |  | 
28 | COc1ccc(Oc2ncc(NC3CCCN(Cc4ccccc4)C3)c(Oc3ccc(OC)cc3)n2)cc1 (racemic) [Cpd 32] |  | > 10 µM | 876 nM | 
29 | COc1ccc(Oc2ncc(NCC3CCNC3)c(Oc3ccc(OC)cc3)n2)cc1 (racemic) [Cpd 22] |  | 9.28 µM | 357 nM | 
30 | COc1ccc(Oc2ncc(NC3CCNC3)c(Oc3ccc(OC)cc3)n2)cc1 (racemic) [Cpd 36] | 2140 nM | > 10 µM |  | 
31 | COc1ccc(Oc2ncc(NC3CNCCC3c3ccccc3)c(Oc3ccc(OC)cc3)n2)cc1 (stereo not shown) [Cpd 35] |  | > 10 µM | 1430 nM | 
32 | Fc1ccc(Oc2ncc(NCC3CCCN3)c(Oc3ccc(F)cc3)n2)cc1 (stereo not shown) [Cpd 24] |  | > 10 µM | 396 nM | 
33 | COc1ccc(Oc2ncc(NCC3CCNCC3)c(Oc3ccc(OC)cc3)n2)cc1 [Cpd 17] | 477 nM | 12.3 µM |  | 
34 | COc1ccc(Oc2ncc(NCC3CNC3)c(Oc3ccc(OC)cc3)n2)cc1 [Cpd 13] | 238 nM | > 10 µM |  | 
35 | COc1ccc(Oc2ncc(NCC3CCCN3)c(Oc3ccc(OC)cc3)n2)cc1 (racemic) [Cpd 6] | 43.7 nM | 1.84 µM |  | GTPγS δ-opioid receptor % Inh @10 μM (delta opioid receptor [3]): 12.502%
36 | COc1ccc(Oc2nc(Oc3cc(F)cc(F)c3)ncc2NC[C@@H]2CCCN2)cc1 [Cpd 54] |  |  |  | GTPγS δ-Rel Efficacy @200 nM (delta opioid receptor [2]): 0.066
37 | COc1ccc(Oc2ncc(NCCC3CCNCC3)c(Oc3ccc(OC)cc3)n2)cc1 [Cpd 33] |  | > 10 µM | 1110 nM | 
38 | COc1ccc(C=Cc2ncc(NC[C@@H]3CCCN3)c(Oc3ccc(OC)cc3)n2)cc1 [Cpd 19, {4-(4-Methoxyphenoxy)-2-[2-(4-methoxyphenyl)vinyl]-pyrimidin-5-yl}-pyrrolidin-2-(S)-ylmethylamine] |  | 2.05 µM | 232 nM | 
